Patent US9962369B2, “Methods and compositions for transdermal delivery” (SPRAYABLE HOLDINGS, INC., priority 2014, dated 2018)

Experiment: Transdermal delivery of melatonin: plasma level of melatonin after applying composition to skin of a subject
Details: for concentration at 0 h / concentration at 1 h / concentration at 2 h / concentration at 0 hr / concentration at 1 hr / concentration at 2 hr / concentration at 4 hr / concentration at 8 hr / concentration at 4 h / concentration at 8 h: human, plasma, topical, 3 mg

For `COc1ccc2[nH]cc(CCNC(C)=O)c2c1` [Melatonin], the “Plasma level of melatonin” value (2-(Dimethylamino)ethyl 2-(4-isobutylphenyl)propionate hydrochloride 222.60 mM, 0.60 mL applied to skin, 1 hr after transdermal administration) was 1.5 ng/mL, the “Plasma level of melatonin” value (2-(Dimethylamino)ethyl 2-(4-isobutylphenyl)propionate hydrochloride 222.60 mM, 0.60 mL applied to skin, 2 hr after transdermal administration) was 1.7 ng/mL and the “Plasma level of melatonin” value (2-(Dimethylamino)ethyl 2-(4-isobutylphenyl)propionate hydrochloride 222.60 mM, 0.60 mL applied to skin, 4 hr after transdermal administration) was 1.6 ng/mL. The “Plasma level of melatonin” value (2-(Dimethylamino)ethyl 2-(4-isobutylphenyl)propionate hydrochloride 222.60 mM, 0.60 mL applied to skin, 8 hr after transdermal administration) was 1.5 ng/mL, the “Plasma level of melatonin” value (4-(Diethylamino)butyl 2-(4-isobutylphenyl)propionate hydrochloride 189.21 mM, 0.60 mL applied to skin, 0 hr after transdermal administration) was 0 ng/mL and the “Plasma level of melatonin” value (4-(Diethylamino)butyl 2-(4-isobutylphenyl)propionate hydrochloride 189.21 mM, 0.60 mL applied to skin, 1 hr after transdermal administration) was 1.4 ng/mL. For the same compound, the “Plasma level of melatonin” value (4-(Diethylamino)butyl 2-(4-isobutylphenyl)propionate hydrochloride 189.21 mM, 0.60 mL applied to skin, 2 hr after transdermal administration) was 1.5 ng/mL, the “Plasma level of melatonin” value (4-(Diethylamino)butyl 2-(4-isobutylphenyl)propionate hydrochloride 189.21 mM, 0.60 mL applied to skin, 4 hr after transdermal administration) was 1.5 ng/mL and the “Plasma level of melatonin” value (4-(Diethylamino)butyl 2-(4-isobutylphenyl)propionate hydrochloride 189.21 mM, 0.60 mL applied to skin, 8 hr after transdermal administration) was 1.3 ng/mL. The “Plasma level of melatonin” value (5-(Diethylamino)pentyl 2-(4-isobutylphenyl)propionate hydrochloride 182.28 mM, 0.60 mL applied to skin, 1 hr after transdermal administration) was 1.6 ng/mL, the “Plasma level of melatonin” value (5-(Diethylamino)pentyl 2-(4-isobutylphenyl)propionate hydrochloride 182.28 mM, 0.60 mL applied to skin, 2 hr after transdermal administration) was 1.9 ng/mL and the “Plasma level of melatonin” value (5-(Diethylamino)pentyl 2-(4-isobutylphenyl)propionate hydrochloride 182.28 mM, 0.60 mL applied to skin, 4 hr after transdermal administration) was 1.9 ng/mL. For the same compound, the “Plasma level of melatonin” value (5-(Diethylamino)pentyl 2-(4-isobutylphenyl)propionate hydrochloride 182.28 mM, 0.60 mL applied to skin, 8 hr after transdermal administration) was 1.7 ng/mL, the “Plasma level of melatonin” value (Helper esters: None (0 mM), 2.0 mL applied to skin, 0 hr after transdermal administration) was 0.0 ng/mL and the concentration at 0 h was 0 ng/mL. The concentration at 0 h (Plasma level of melatonin, Helper esters: None (0 mM), 2.0 mL applied to skin, 0 hr after transdermal administration) was 0 ng/mL, the concentration at 1 h (Plasma level of melatonin, Helper esters: None (0 mM), 2.0 mL applied to skin, 1 hr after transdermal administration) was 0.1 ng/mL and the concentration at 2 h (Plasma level of melatonin, Helper esters: None (0 mM), 2.0 mL applied to skin, 2 hr after transdermal administration) was 0.1 ng/mL. The concentration at 0 hr (Plasma level of melatonin, Isoleucine hexyl ester 278.04 mM, 0.60 mL applied to skin, 0 hr after transdermal administration) was 0 ng/mL, the concentration at 1 hr (Plasma level of melatonin, Isoleucine hexyl ester 278.04 mM, 0.60 mL applied to skin, 1 hr after transdermal administration) was 1.2 ng/mL and the concentration at 2 hr (Plasma level of melatonin, Isoleucine hexyl ester 278.04 mM, 0.60 mL applied to skin, 2 hr after transdermal administration) was 1.3 ng/mL. It also gave a concentration at 4 hr (Plasma level of melatonin, Isoleucine hexyl ester 278.04 mM, 0.60 mL applied to skin, 4 hr after transdermal administration) of 1.4 ng/mL, a concentration at 8 hr (Plasma level of melatonin, Isoleucine hexyl ester 278.04 mM, 0.60 mL applied to skin, 8 hr after transdermal administration) of 1.3 ng/mL and a concentration at 0 hr (Plasma level of melatonin, Isoleucine isopropyl ester 333.76 mM, 0.60 mL applied to skin, 0 hr after transdermal administration) of 0 ng/mL. It also gave a concentration at 1 hr (Plasma level of melatonin, Isoleucine isopropyl ester 333.76 mM, 0.60 mL applied to skin, 1 hr after transdermal administration) of 1.7 ng/mL, a concentration at 2 hr (Plasma level of melatonin, Isoleucine isopropyl ester 333.76 mM, 0.60 mL applied to skin, 2 hr after transdermal administration) of 1.8 ng/mL and a concentration at 4 hr (Plasma level of melatonin, Isoleucine isopropyl ester 333.76 mM, 0.60 mL applied to skin, 4 hr after transdermal administration) of 1.9 ng/mL. For the same compound, the concentration at 8 hr (Plasma level of melatonin, Isoleucine isopropyl ester 333.76 mM, 0.60 mL applied to skin, 8 hr after transdermal administration) was 1.8 ng/mL, the concentration at 0 h (Plasma level of melatonin, Leucine hexyl ester hydrochloride 278.04 mM, 0.60 mL applied to skin, 0 hr after transdermal administration) was 0 ng/mL and the concentration at 1 h (Plasma level of melatonin, Leucine hexyl ester hydrochloride 278.04 mM, 0.60 mL applied to skin, 1 hr after transdermal administration) was 1.4 ng/mL. For the same compound, the concentration at 2 h (Plasma level of melatonin, Leucine hexyl ester hydrochloride 278.04 mM, 0.60 mL applied to skin, 2 hr after transdermal administration) was 1.5 ng/mL, the concentration at 4 hr (Plasma level of melatonin, Leucine hexyl ester hydrochloride 278.04 mM, 0.60 mL applied to skin, 4 hr after transdermal administration) was 1.5 ng/mL and the concentration at 8 hr (Plasma level of melatonin, Leucine hexyl ester hydrochloride 278.04 mM, 0.60 mL applied to skin, 8 hr after transdermal administration) was 1.3 ng/mL. The concentration at 0 h (Plasma level of melatonin, Leucine isopropyl ester hydrochloride 333.76 mM, 0.60 mL applied to skin, 0 hr after transdermal administration) was 0 ng/mL, the concentration at 1 h (Plasma level of melatonin, Leucine isopropyl ester hydrochloride 333.76 mM, 0.60 mL applied to skin, 1 hr after transdermal administration) was 1.7 ng/mL and the concentration at 2 h (Plasma level of melatonin, Leucine isopropyl ester hydrochloride 333.76 mM, 0.60 mL applied to skin, 2 hr after transdermal administration) was 1.8 ng/mL. The concentration at 4 h (Plasma level of melatonin, Leucine isopropyl ester hydrochloride 333.76 mM, 0.60 mL applied to skin, 4 hr after transdermal administration) was 1.9 ng/mL, the concentration at 8 h (Plasma level of melatonin, Leucine isopropyl ester hydrochloride 333.76 mM, 0.60 mL applied to skin, 8 hr after transdermal administration) was 1.8 ng/mL and the concentration at 0 hr (Plasma level of melatonin, Phenylalanine isopropyl ester hydrochloride 287.21 mM, 0.60 mL applied to skin, 0 hr after transdermal administration) was 0 ng/mL. It also gave a concentration at 1 hr (Plasma level of melatonin, Phenylalanine isopropyl ester hydrochloride 287.21 mM, 0.60 mL applied to skin, 1 hr after transdermal administration) of 1.6 ng/mL, a concentration at 2 hr (Plasma level of melatonin, Phenylalanine isopropyl ester hydrochloride 287.21 mM, 0.60 mL applied to skin, 2 hr after transdermal administration) of 1.7 ng/mL and a concentration at 4 hr (Plasma level of melatonin, Phenylalanine isopropyl ester hydrochloride 287.21 mM, 0.60 mL applied to skin, 4 hr after transdermal administration) of 1.6 ng/mL. For the same compound, the concentration at 8 hr (Plasma level of melatonin, Phenylalanine isopropyl ester hydrochloride 287.21 mM, 0.60 mL applied to skin, 8 hr after transdermal administration) was 1.7 ng/mL, the concentration at 0 h (Plasma level of melatonin, Phenylalanine octyl ester hydrochloride 223.02 mM, 0.60 mL applied to skin, 0 hr after transdermal administration) was 0 ng/mL and the concentration at 1 h (Plasma level of melatonin, Phenylalanine octyl ester hydrochloride 223.02 mM, 0.60 mL applied to skin, 1 hr after transdermal administration) was 1.3 ng/mL. The concentration at 2 h (Plasma level of melatonin, Phenylalanine octyl ester hydrochloride 223.02 mM, 0.60 mL applied to skin, 2 hr after transdermal administration) was 1.4 ng/mL, the concentration at 4 h (Plasma level of melatonin, Phenylalanine octyl ester hydrochloride 223.02 mM, 0.60 mL applied to skin, 4 hr after transdermal administration) was 1.3 ng/mL and the concentration at 8 h (Plasma level of melatonin, Phenylalanine octyl ester hydrochloride 223.02 mM, 0.60 mL applied to skin, 8 hr after transdermal administration) was 1.2 ng/mL. It also gave a concentration at 0 hr (Plasma level of melatonin, Table 20 control, A− N/A, helper esters 0 mM, 2.0 mL applied, 0 hr after transdermal administration) of 0 ng/mL, a concentration at 1 hr (Plasma level of melatonin, Table 20 control, A− N/A, helper esters 0 mM, 2.0 mL applied, 1 hr after transdermal administration) of 0.1 ng/mL and a concentration at 2 h (Plasma level of melatonin, Table 20 control, A− N/A, helper esters 0 mM, 2.0 mL applied, 2 hr after transdermal administration) of 0.1 ng/mL.
